Laboratory results taken from patent publication US5576187A (priority 1994, dated 1996).

System: anti-chlorpyrifos monoclonal antibody
Type: binding, mouse

Cn1c(Cl)c(Cl)cc(Cl)c1=O [N-methyl-3,5,6-trichloro-2-pyridinone]
relative reactivity: concentration equivalent to 1 ppB of chlorpyrifos in the immunoassay: 75 ppm

CCOP(=O)(Cc1ccc(C)cc1)OCC [diethyl 4-methylbenzylphosphonate]
relative reactivity: concentration equivalent to 1 ppB of chlorpyrifos in the immunoassay: 50 ppm
